Reference: the supplement of paper PMC9013687

Legend:
[1] = system: Danio rerio embryo; experiment: EC50 Curvature_Increase
Protocol: (§1)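 Zebrafish embryos (UFZ-OBI strain) were exposed from 2 hpf for 48 h (2 dpf) or 96 h (4 dpf) at 28 °C; spontaneous tail coiling was scored at 25 hpf. Morphological features from automated image analysis (FishInspector), heart rate and locomotor response were fitted with drc models. Quantal endpoints were dichotomised at 2.5 SD from controls and fitted with a log-logistic model; heart rate, pigmentation and STC were normalised to the replicate control mean. Betamethasone was tested as betamethasone dipropionate, diflorasone as diflorasone diacetate.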

[2] = system: Danio rerio embryo; experiment: EC20 LMR dark; higher = less potent; settings: exposure time: 4 dpf
Protocol: as §1

[3] = system: Danio rerio embryo; experiment: EC10 Eye-jaw distance_Decrease; higher = less potent; settings: exposure time: 4 dpf
Protocol: as §1

[4] = system: Danio rerio embryo; experiment: EC20 Eye-jaw distance_Decrease; higher = less potent; settings: exposure time: 4 dpf
Protocol: as §1

[5] = system: Danio rerio embryo; settings: exposure time: 4 dpf
Protocol: as §1

[6] = system: Danio rerio embryo; experiment: EC10 Otolith-eye distance_Decrease; higher = less potent; settings: exposure time: 4 dpf
Protocol: as §1

[7] = system: Danio rerio embryo
Protocol: as §1

[8] = system: Danio rerio embryo; experiment: EC20 Body length_Decrease; higher = less potent
Protocol: as §1

[9] = system: Danio rerio embryo; experiment: EC20 Bladder size_Decrease; higher = less potent; settings: exposure time: 4 dpf
Protocol: as §1

[10] = system: Danio rerio embryo; experiment: EC50 Eye size_Decrease; settings: exposure time: 4 dpf
Protocol: as §1

[11] = system: Danio rerio embryo; experiment: EC10 Bladder size_Decrease; higher = less potent; settings: exposure time: 4 dpf
Protocol: as §1

[12] = system: Danio rerio embryo; experiment: EC20 Curvature_Increase; higher = less potent
Protocol: as §1

[13] = system: Danio rerio embryo; experiment: EC50 Eye-jaw distance_Decrease; settings: exposure time: 4 dpf
Protocol: as §1

[14] = system: Danio rerio embryo; experiment: EC10 LMR dark; higher = less potent; settings: exposure time: 4 dpf
Protocol: as §1

[15] = system: Danio rerio embryo; experiment: EC50 Otolith-eye distance_Decrease; settings: exposure time: 4 dpf
Protocol: as §1

[16] = system: Danio rerio embryo; experiment: EC10 Curvature_Increase; higher = less potent
Protocol: as §1

[17] = system: Danio rerio embryo; experiment: EC50 Yolk sac size_Increase; settings: exposure time: 4 dpf
Protocol: as §1

[18] = system: Danio rerio embryo; experiment: EC20 Otolith-eye distance_Decrease; higher = less potent; settings: exposure time: 4 dpf
Protocol: as §1

[19] = system: Danio rerio embryo; experiment: EC20 Pericard size_Increase; higher = less potent; settings: exposure time: 4 dpf
Protocol: as §1

[20] = system: Danio rerio embryo; experiment: EC50 Bladder size_Decrease; settings: exposure time: 4 dpf
Protocol: as §1

[21] = system: Danio rerio embryo; experiment: EC10 Body length_Decrease; higher = less potent
Protocol: as §1

[22] = system: Danio rerio embryo; experiment: EC20 Any effect; higher = less potent
Protocol: as §1

[23] = system: Danio rerio embryo; experiment: EC50 Pericard size_Increase; settings: exposure time: 4 dpf
Protocol: as §1

[24] = system: Danio rerio embryo; experiment: EC10 Pericard size_Increase; higher = less potent; settings: exposure time: 4 dpf
Protocol: as §1

[25] = system: Danio rerio embryo; experiment: EC10 Yolk sac size_Increase; higher = less potent; settings: exposure time: 4 dpf
Protocol: as §1

[26] = system: Danio rerio embryo; experiment: EC50 Body length_Decrease
Protocol: as §1

[27] = system: Danio rerio embryo; experiment: EC20 Yolk sac size_Increase; higher = less potent; settings: exposure time: 4 dpf
Protocol: as §1

[28] = system: Danio rerio embryo; experiment: EC50 Head trunk angle_Decrease; settings: exposure time: 2 dpf
Protocol: as §1

[29] = system: Danio rerio embryo; experiment: spontaneous tail coiling frequency (coils/min/embryo); higher = more spontaneous movement; settings: 25 hpf
Protocol: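 Spontaneous tail coilings of zebrafish embryos exposed from 2 hpf were recorded at 24-25 hpf in 1-min videos and detected by a KNIME workflow from grey-value variance. Betamethasone was tested as the dipropionate, diflorasone as the diacetate.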

[30] = system: Danio rerio embryo; experiment: EC10 Any effect; higher = less potent
Protocol: as §1

CN(Cc1cnc2nc(N)nc(N)c2n1)c1ccc(C(=O)N[C@@H](CCC(=O)O)C(=O)O)cc1 [Methotrexate]
Settings	EC10 Any effect [µM]	EC10 Body length Decrease [µM]	EC10 Curvature Increase [µM]	EC20 Any effect [µM]	EC20 Body length Decrease [µM]	EC20 Curvature Increase [µM]	EC50 Any effect [µM]	EC50 Body length Decrease [µM]	EC50 Curvature Increase [µM]	EC50 LMR ligth decrease [µM]	spontaneous tail coiling frequency
[1], exposure time: 2 dpf	–	–	–	–	–	–	–	–	250	–	–
[1], exposure time: 4 dpf	–	–	–	–	–	–	–	–	219	–	–
[7], exposure time: 2 dpf	–	–	–	–	–	–	207	–	–	–	–
[7], exposure time: 4 dpf	–	–	–	–	–	–	116	–	–	127	–
[8], exposure time: 2 dpf	–	–	–	–	180	–	–	–	–	–	–
[8], exposure time: 4 dpf	–	–	–	–	136	–	–	–	–	–	–
[12], exposure time: 2 dpf	–	–	–	–	–	168	–	–	–	–	–
[12], exposure time: 4 dpf	–	–	–	–	–	188	–	–	–	–	–
[16], exposure time: 2 dpf	–	–	133	–	–	–	–	–	–	–	–
[16], exposure time: 4 dpf	–	–	172	–	–	–	–	–	–	–	–
[21], exposure time: 2 dpf	–	151	–	–	–	–	–	–	–	–	–
[21], exposure time: 4 dpf	–	104	–	–	–	–	–	–	–	–	–
[22], exposure time: 2 dpf	–	–	–	126	–	–	–	–	–	–	–
[22], exposure time: 4 dpf	–	–	–	55.2	–	–	–	–	–	–	–
[26], exposure time: 2 dpf	–	–	–	–	–	–	–	241	–	–	–
[26], exposure time: 4 dpf	–	–	–	–	–	–	–	214	–	–	–
[29], 43.5 µM	–	–	–	–	–	–	–	–	–	–	3.02
[29], 65.2 µM	–	–	–	–	–	–	–	–	–	–	3.58
[29], 97.8 µM	–	–	–	–	–	–	–	–	–	–	2.42
[29], 146.7 µM	–	–	–	–	–	–	–	–	–	–	1.83
[29], 220.1 µM	–	–	–	–	–	–	–	–	–	–	2.71
[29], 330.1 µM	–	–	–	–	–	–	–	–	–	–	3.53
[29], 440.1 µM	–	–	–	–	–	–	–	–	–	–	3.51
[30], exposure time: 2 dpf	93.9	–	–	–	–	–	–	–	–	–	–
[30], exposure time: 4 dpf	35.7	–	–	–	–	–	–	–	–	–	–

Settings	EC10 Bladder size Decrease [µM]	EC10 Eye-jaw distance Decrease [µM]	EC10 LMR dark [µM]	EC10 Otolith-eye distance Decrease [µM]	EC10 Pericard size Increase [µM]	EC10 Yolk sac size Increase [µM]	EC20 Bladder size Decrease [µM]	EC20 Eye-jaw distance Decrease [µM]	EC20 LMR dark [µM]	EC20 Otolith-eye distance Decrease [µM]	EC20 Pericard size Increase [µM]	EC20 Yolk sac size Increase [µM]	EC50 Bladder size Decrease [µM]	EC50 Eye size Decrease [µM]	EC50 Eye-jaw distance Decrease [µM]	EC50 Head trunk angle Decrease [µM]	EC50 LMR dark [µM]	EC50 Otolith-eye distance Decrease [µM]	EC50 Pericard size Increase [µM]	EC50 Yolk sac size Increase [µM]
[2]	–	–	–	–	–	–	–	–	206	–	–	–	–	–	–	–	–	–	–	–
[3]	–	122	–	–	–	–	–	–	–	–	–	–	–	–	–	–	–	–	–	–
[4]	–	–	–	–	–	–	–	146	–	–	–	–	–	–	–	–	–	–	–	–
[5]	–	–	–	–	–	–	–	–	–	–	–	–	–	–	–	–	243	–	–	–
[6]	–	–	–	116	–	–	–	–	–	–	–	–	–	–	–	–	–	–	–	–
[9]	–	–	–	–	–	–	99.9	–	–	–	–	–	–	–	–	–	–	–	–	–
[10]	–	–	–	–	–	–	–	–	–	–	–	–	–	162	–	–	–	–	–	–
[11]	95.7	–	–	–	–	–	–	–	–	–	–	–	–	–	–	–	–	–	–	–
[13]	–	–	–	–	–	–	–	–	–	–	–	–	–	–	197	–	–	–	–	–
[14]	–	–	186	–	–	–	–	–	–	–	–	–	–	–	–	–	–	–	–	–
[15]	–	–	–	–	–	–	–	–	–	–	–	–	–	–	–	–	–	248	–	–
[17]	–	–	–	–	–	–	–	–	–	–	–	–	–	–	–	–	–	–	–	173
[18]	–	–	–	–	–	–	–	–	–	154	–	–	–	–	–	–	–	–	–	–
[19]	–	–	–	–	–	–	–	–	–	–	193	–	–	–	–	–	–	–	–	–
[20]	–	–	–	–	–	–	–	–	–	–	–	–	108	–	–	–	–	–	–	–
[23]	–	–	–	–	–	–	–	–	–	–	–	–	–	–	–	–	–	–	385	–
[24]	–	–	–	–	129	–	–	–	–	–	–	–	–	–	–	–	–	–	–	–
[25]	–	–	–	–	–	20.2	–	–	–	–	–	–	–	–	–	–	–	–	–	–
[27]	–	–	–	–	–	–	–	–	–	–	–	44.7	–	–	–	–	–	–	–	–
[28]	–	–	–	–	–	–	–	–	–	–	–	–	–	–	–	252	–	–	–	–
